Experimental data as given in PubChem BioAssay (NCI).
Several values for one entry are separate records, joined by “and”; a condition that tells them apart may be missing. Equal entries are not always repeated.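 Cells were grown in 96-well plates and exposed to each compound for 48 hours at five concentrations; endpoints were interpolated linearly between bracketing concentrations, or set to the highest concentration if not reached. GI50 is the concentration that inhibits growth by half. TGI denotes the concentration required for complete inhibition of growth.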 Where a SMILES comes first, the peptide text is derived from it. [ ]: non-standard residue; d: D form. Phe(4-Cl) = N[CH](Cc1ccc(Cl)cc1)C(=O)O

Columns and labels:
Assay in all cases: DTP human tumour cell line panel, 48 h
[1] = test system: SN12C renal
[2] = test system: UACC-257 melanoma
[3] = test system: SNB-75 CNS
[4] = test system: MOLT-4 leukemia
[5] = test system: M14 melanoma
[6] = test system: SNB-19 CNS
[7] = test system: LOX IMVI melanoma
[8] = test system: PC-3 prostate
[9] = test system: RPMI-8226 leukemia
[10] = test system: NCI-H522 lung

SMILES	TGI [1]	TGI [2]	TGI [3]	TGI [4]	TGI [5]	TGI [6]	GI50 [1]	GI50 [2]	GI50 [7]	TGI [7]	GI50 [3]	GI50 [4]	GI50 [8]	TGI [8]	GI50 [6]	GI50 [9]	TGI [9]	GI50 [5]	GI50 [10]	TGI [10]
COC(=O)C1=NC(=S)NC(c2ccccc2)C1c1nc2ccccc2s1 (stereo not drawn)	> 100 µM	> 100 µM	> 100 µM	> 100 µM	> 100 µM	> 100 µM														
CCN(CC)CCN1CC(O)=C(c2nc(-c3ccc(Cl)cc3)cs2)C1=N	> 100 µM	3.51 µM	3.4 µM	4.42 µM		4.5 µM	5.25 µM	1.82 µM	1.83 µM	3.43 µM	1.6 µM	1.87 µM	6.8 µM	> 100 µM	2.1 µM	2 µM	5.09 µM			
CC1=C(C)CC2(CCCCC2=O)S(=O)C1 (stereo not drawn)	> 100 µM	> 100 µM	> 100 µM	> 100 µM	> 100 µM	> 100 µM				> 100 µM							> 100 µM			
CC(O)C(NC(=O)C(Cc1ccccc1)NC(=O)C(NC(=O)C(CCCCN)NC(=O)C(Cc1c[nH]c2ccccc12)NC(=O)C(Cc1ccc(O)cc1)NC(=O)C(Cc1ccc(Cl)cc1)NC(=O)C(N)Cc1ccccc1)C(C)O)C(N)=O (stereo not drawn) (H-F[Phe(4-Cl)]YWKTFT-NH2; configuration not given here)	> 100 µM		37.4 µM	62.2 µM	47.1 µM	34.1 µM											33.5 µM			
CC(=O)OC[C@]12CC[C@H]3[C@@H](C[C@H]4O[C@]45[C@@H](O)C=CC(=O)[C@]35C)[C@@H]1CC[C@@H]2[C@H](C)[C@H]1CC(C)=C(C)C(=O)O1	0.943 µM and 1.16 µM	2.69 µM	0.953 µM and 1.25 µM	0.878 µM and 0.615 µM	1.11 µM	0.899 µM and 2.52 µM	0.401 µM and 0.322 µM	0.638 µM and 0.801 µM	0.303 µM and 0.374 µM	0.692 µM and 1.19 µM	0.261 µM and 0.264 µM	0.289 µM and 0.191 µM			0.7 µM and 1.16 µM	0.26 µM and 0.107 µM	0.846 µM and 0.446 µM	0.442 µM and 0.32 µM	0.259 µM and 0.166 µM	0.561 µM and 0.406 µM
NC1=NN(c2ccccc2)C(=O)C1C(=O)CCC(=O)Nc1cccc(C(F)(F)F)c1 (stereo not drawn)	> 100 µM	> 100 µM		> 100 µM	> 100 µM	> 100 µM				> 100 µM										
COc1ccc(-c2cn3ccsc3n2)cc1	> 100 µM	> 100 µM	> 100 µM	> 100 µM	> 100 µM	> 100 µM				> 100 µM							54.6 µM			> 100 µM
CN(C)CCNC(=O)c1cccc(C(=O)Nc2ccccc2)c1[N+](=O)[O-]	> 100 µM	> 100 µM	> 100 µM	> 100 µM	> 100 µM	> 100 µM								> 100 µM						> 100 µM
Cc1ccc(Nc2nc3c(s2)C(=O)c2ccccc2C3=O)c(C)c1	31.1 µM	22.8 µM	30.1 µM	23.4 µM	28.9 µM	27.7 µM				35.4 µM							45.6 µM			4.66 µM
COc1ccc2c(c1)C=C([N+](=O)[O-])C(C1OC(C)(C)OC1C1COC(C)(C)O1)O2 (stereo not drawn)	19.7 µM	6.16 µM	28.2 µM	6.51 µM	6.15 µM	25.7 µM				2.92 µM							4.54 µM			2.29 µM
COc1cc(OC(=O)c2c(O)cc(O)c(O)c2C)cc(C)c1C(=O)Oc1cc(C)c(C(=O)O)c(O)c1	> 100 µM	> 100 µM	> 100 µM	> 100 µM	> 100 µM					> 100 µM							> 100 µM			> 100 µM
